The results in this text go back to PMC8595762 (Plant Direct, 2021).

One assay addresses T1, ABCB4 (Arabidopsis thaliana, UniProt O80725).
T1 sequence (O80725 1-1286): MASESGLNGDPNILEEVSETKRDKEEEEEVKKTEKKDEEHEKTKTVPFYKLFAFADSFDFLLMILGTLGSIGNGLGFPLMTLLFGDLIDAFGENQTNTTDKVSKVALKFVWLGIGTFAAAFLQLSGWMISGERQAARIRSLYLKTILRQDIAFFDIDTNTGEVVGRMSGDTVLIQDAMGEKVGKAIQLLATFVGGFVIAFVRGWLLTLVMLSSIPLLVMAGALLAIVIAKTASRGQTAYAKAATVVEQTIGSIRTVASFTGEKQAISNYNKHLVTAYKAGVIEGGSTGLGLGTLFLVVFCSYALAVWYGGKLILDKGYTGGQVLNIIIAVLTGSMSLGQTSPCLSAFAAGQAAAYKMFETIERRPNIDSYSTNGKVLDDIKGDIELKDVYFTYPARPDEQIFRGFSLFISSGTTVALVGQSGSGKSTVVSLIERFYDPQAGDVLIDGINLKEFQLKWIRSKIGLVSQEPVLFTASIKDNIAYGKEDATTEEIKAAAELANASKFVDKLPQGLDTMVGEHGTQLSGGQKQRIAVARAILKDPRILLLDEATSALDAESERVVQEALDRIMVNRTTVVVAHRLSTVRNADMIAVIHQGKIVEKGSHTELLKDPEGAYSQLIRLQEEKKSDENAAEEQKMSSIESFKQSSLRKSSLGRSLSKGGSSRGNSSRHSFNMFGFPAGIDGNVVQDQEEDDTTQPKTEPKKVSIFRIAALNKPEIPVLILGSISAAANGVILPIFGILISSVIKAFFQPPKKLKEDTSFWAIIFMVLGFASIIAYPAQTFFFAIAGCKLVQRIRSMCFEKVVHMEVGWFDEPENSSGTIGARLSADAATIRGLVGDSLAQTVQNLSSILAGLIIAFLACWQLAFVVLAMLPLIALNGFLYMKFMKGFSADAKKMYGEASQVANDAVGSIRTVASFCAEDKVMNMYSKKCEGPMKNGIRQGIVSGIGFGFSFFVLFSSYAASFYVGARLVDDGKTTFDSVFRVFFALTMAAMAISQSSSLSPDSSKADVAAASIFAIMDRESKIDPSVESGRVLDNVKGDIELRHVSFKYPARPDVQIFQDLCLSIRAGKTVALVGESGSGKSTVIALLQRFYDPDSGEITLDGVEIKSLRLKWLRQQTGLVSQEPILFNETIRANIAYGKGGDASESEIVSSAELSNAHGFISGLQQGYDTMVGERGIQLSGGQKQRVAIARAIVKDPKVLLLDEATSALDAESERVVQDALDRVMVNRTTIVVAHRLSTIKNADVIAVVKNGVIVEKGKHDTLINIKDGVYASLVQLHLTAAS
Nature of the assay: whole-cell patch clamp, current magnitude. The class given is cell-based. To be noted: activation; IAA in pipette (cytoplasmic side); 50 mM CsCl. On the technique in general: The patch-clamp technique gives a direct electrical read-out from membranes.

The next assay has as its target T2, PIN2 (Arabidopsis thaliana, UniProt Q9LU77).
T2 sequence (Q9LU77 1-647): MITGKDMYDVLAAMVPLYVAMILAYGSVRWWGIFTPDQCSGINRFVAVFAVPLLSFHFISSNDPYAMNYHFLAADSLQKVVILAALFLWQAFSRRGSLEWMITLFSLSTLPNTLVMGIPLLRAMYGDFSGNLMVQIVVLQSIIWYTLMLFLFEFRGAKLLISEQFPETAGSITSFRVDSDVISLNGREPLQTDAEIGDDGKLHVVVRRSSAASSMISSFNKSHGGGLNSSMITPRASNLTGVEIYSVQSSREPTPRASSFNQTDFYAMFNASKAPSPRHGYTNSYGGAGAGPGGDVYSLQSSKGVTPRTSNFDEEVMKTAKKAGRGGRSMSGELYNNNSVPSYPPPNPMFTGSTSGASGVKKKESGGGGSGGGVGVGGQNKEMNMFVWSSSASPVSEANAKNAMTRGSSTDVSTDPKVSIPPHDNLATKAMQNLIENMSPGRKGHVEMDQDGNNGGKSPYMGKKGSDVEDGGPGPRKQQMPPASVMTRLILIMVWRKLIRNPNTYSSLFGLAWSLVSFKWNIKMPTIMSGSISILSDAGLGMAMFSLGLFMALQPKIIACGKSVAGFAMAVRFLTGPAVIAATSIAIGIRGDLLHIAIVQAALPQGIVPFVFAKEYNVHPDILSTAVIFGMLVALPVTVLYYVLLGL
The assay is described as follows: whole-cell patch clamp, block of currents. The class given is cell-based. To be noted: inhibition; NPPB in bath; auxin-stimulated conditions; 50 mM CsCl.

Consider `O=C(O)Cc1c[nH]c2ccccc12` [IAA^−], for which, on ABCB4, the “% increase in currents, 0.1 to 1 μM IAA” value was ~ 30%.

As for `O=C(O)c1cc([N+](=O)[O-])ccc1NCCCc1ccccc1` [NPPB, 5‐nitro‐2‐(3‐phenylpropylamine)‐benzoic acid], the “block at 20 μM” value on PIN2 was “NPPB but not NPA was an effective inhibitor”.
